Experimental data as given in patent US20120301895A1, “METHODS OF MODULATING BINDING OF SON OF SEVENLESS TO PHOSPHATIDIC ACID AND IDENTIFYING COMPOUNDS THAT MODULATE SUCH BINDING” (THE RESEARCH FOUNDATION OF STATE UNIVERSITY OF NEW YORK, priority 2007, published 2012).
Positions count from the first letter of the chain named.

Key:
[1] = molecular target: T1, Sos-PH (Homo sapiens, UniProt Q07889, H475E/R479E); test: PA-induced plasma membrane translocation of GFP-tagged Sos-PH in COS-1 cells (fluorescence microscopy); format: cell-based, African green monkey; conditions: membrane-permeable PA 100 μM, 20 min, serum-starved COS-1 cells
T1 construct: expressed in transfected cells; host or cells: COS-1
T1 sequence (Q07889 422-551 H475E/R479E): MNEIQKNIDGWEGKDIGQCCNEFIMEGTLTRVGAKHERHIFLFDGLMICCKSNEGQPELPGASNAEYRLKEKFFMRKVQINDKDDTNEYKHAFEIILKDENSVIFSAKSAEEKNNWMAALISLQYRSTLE
Method: (§1) In FIG. 6A, COS-1 cells were transfected with GFP-tagged constructs of Sos-PH or Sos-PH-HR/EE. The cells were serum-starved and then treated with PA (100 μM) for 20 min. In FIG. 6B, COS-1 cells were transfected with HA-tagged Sos-ΔC or Sos-ΔC-HR/EE. The cells were serum-starved and then stimulated with serum (20%) for 10 min. For FIGS. 6A-B, the fluorescence staining patterns were analyzed through the acquisition of serial optical Z sections. The images shown represent single 0.25 μm optical sections acquired at the mid plane of the cells with the same exposure time. Membrane localization is reflected by the relative increase in fluorescence intensity at the cell periphery (arrowheads). The boxed areas are enlarged on the top and bottom of the corresponding images. The number of cells displaying plasma membrane localization of the protein is expressed as percentage of the total number of cells scored and normalized to the maximal value obtained for each experiment. […] Results are the mean+/−s.d. of three independent experiments with at least 100 cells scored in each experiment. Scale bars represent 20 μm in all panels. In FIGS. 6C-D, COS-1 cells were co-transfected with HA-tagged Ras and the indicated HA-tagged Sos-ΔC constructs. […] Ras activation was measured by the RBD pull-down assay as described in the Examples. […]

[2] = molecular target: T2, Sos-PH (Homo sapiens, UniProt Q07889); test: as above; format: cell-based, African green monkey; conditions: membrane-permeable PA 100 μM, 20 min, serum-starved COS-1 cells, wild-type Sos-PH
T2 construct: expressed in transfected cells; host or cells: COS-1
T2 sequence (Q07889 422-551): T1 sequence (Q07889 422-551 H475E/R479E) with E54H, E58R
Method: as §1

[3] = test system: Ras; test: Ras activation by Sos-ΔC after PA treatment, RBD pull-down in COS-1 cells; format: cell-based; conditions: membrane-permeable PA 100 μM, serum-starved COS-1 cells
Method: as §1, with “The boxed areas are enlarged on the top and bottom of the corresponding images.” left out, “experiment.” for “experiment. Scale bars represent 20 μm in all panels. In FIGS. 6C-D, COS-1 cells were co-transfected with HA-tagged Ras and the indicated HA-tagged Sos-ΔC constructs.”
The levels of Ras-GTP were determined by the GST-RBD pull down assay as described previously (Boykevisch et al., “Regulation of Ras Signaling Dynamics by Sos-mediated Positive Feedback,” Curr. Biol. 16:2173-2179 (2006), which is hereby incorporated by reference in its entirety). […]

[4] = test system: HIF2α; test: HIF2α expression in 786-O cells (Western blot); format: cell-based, human; conditions: 0.5% serum, 4 hr, honokiol 20 μM, 1-BtOH 0.8%
Method: In FIG. 15B, 786-O cells were plated and then shifted to media containing 0.5% serum 24 hr later. 18 hr later, the cells were treated with 1-Bt0H (0.8%), honokiol (Hon) (20 μM), and t-BtOH (0.8%) as indicated. Cell lysates were prepared 4 hr later and examined for HIF2α and actin expression by Western lot analysis. The experiment shown is representative of two independent experiments.
Extraction of proteins from cultured cells and Western blot analysis of extracted proteins was performed using the ECL system (Amersham) as described previously (Chen et al., “Alternative Phospholipase D/mTOR Survival Signal in Human Breast Cancer Cells,” Oncogene 24:672-9 (2005), which is hereby incorporated by reference in its entirety).
The effect of honokiol on HIF2α expression was examined in these cells.

| plasma membrane recruitment of Sos-PH-HR/EE [1] | Sos-PH translocation to the plasma membrane [2] | SMILES | Ras activation by SosΔC [3] | level of active Ras in cells expressing SosΔC-HR/EE [3] | HIF2α expression [4] |
| --- | --- | --- | --- | --- | --- |
| failed to induce | stimulated | CCCCCCCCCCCC(=O)OC[C@H](COP(=O)(O)O)OC(=O)CCCCCCCCCCC [PA, 1,2-Dilauroyl-sn-Glycero-3-Phosphate] | sufficed to induce | did not increase |  |
|  |  | CCCCO [1-butanol] |  |  | suppressed |
